Test results as given in PubChem BioAssay AID248 (DTP/NCI, 2004).
Where “and” joins values, the source holds several entries; their conditions need not be identical. Equal entries are not always repeated. Inconclusive results and toxic doses are left out. Cut-off read from the data, not from the text of the source: active = T/C of 150% or more; inactive = T/C below 125%.

System: L1210 leukemia ip in BDF1 mice, survival T/C
Assay: NCI In Vivo Anticancer Drug Screen. Data for tumor model L1210 Leukemia (intraperitoneal) in B6D2F1 (BDF1) mice
Details: endpoint: mean survival time, higher = longer survival
Outline: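 Tumor cells were implanted, animals were treated, and survival was followed. The result divides the treated measurement by the vehicle-control measurement.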

[1] = dose: 100.0 mg/kg/injection, schedule: Q04DX003 (ip), vehicle: Klucel (hydroxypropylcellulose) (HPC)
[2] = dose: 200.0 mg/kg/injection, schedule: Q04DX003 (ip), vehicle: Klucel (hydroxypropylcellulose) (HPC)
[3] = dose: 400.0 mg/kg/injection, schedule: Q04DX003 (ip), vehicle: Klucel (hydroxypropylcellulose) (HPC)
[4] = dose: 100.0 mg/kg/injection, schedule: Q04DX003 (ip), vehicle: acetone
[5] = dose: 100.0 mg/kg/injection, schedule: Q04DX002 (ip), vehicle: saline with Tween-80
[6] = dose: 200.0 mg/kg/injection, schedule: Q04DX002 (ip), vehicle: saline with Tween-80
[7] = dose: 400.0 mg/kg/injection, schedule: Q04DX002 (ip), vehicle: saline with Tween-80
[8] = dose: 100.0 mg/kg/injection, schedule: Q04DX003 (ip), vehicle: saline with Tween-80
[9] = dose: 200.0 mg/kg/injection, schedule: Q04DX003 (ip), vehicle: saline with Tween-80
[10] = dose: 400.0 mg/kg/injection, schedule: Q04DX003 (ip), vehicle: saline with Tween-80
[11] = dose: 100.0 mg/kg/injection, schedule: Q04DX002 (ip), vehicle: saline
[12] = dose: 200.0 mg/kg/injection, schedule: Q04DX002 (ip), vehicle: saline
[13] = dose: 400.0 mg/kg/injection, schedule: Q04DX002 (ip), vehicle: saline
[14] = dose: 100.0 mg/kg/injection, schedule: Q01DX001 (ip), vehicle: Klucel (hydroxypropylcellulose) (HPC)

Measured: T/C

NC(N)=N/N=C/NN/C=N/N=C(N)N
inactive: dose: 15.0 mg/kg/injection, schedule: Q01DX Z (ip), vehicle: saline 93 % of control | dose: 30.0 mg/kg/injection, schedule: Q01DX Z (ip), vehicle: saline 104 % of control | dose: 60.0 mg/kg/injection, schedule: Q01DX Z (ip), vehicle: saline 115 % of control | dose: 120.0 mg/kg/injection, schedule: Q01DX Z (oral), vehicle: saline 95 % of control

CCSc1ncc2cnccn12
inactive: dose: 25.0 mg/kg/injection, schedule: Q01DX009 (ip), vehicle: water 91 % of control | dose: 50.0 mg/kg/injection, schedule: Q01DX009 (ip), vehicle: water 100 % of control | dose: 100.0 mg/kg/injection, schedule: Q04DX003 (ip), vehicle: water 91 % of control

CCC(C)C(NC(=O)C(CC(C)C)N(C)C)C(=O)N1CCC2Oc3ccc(cc3)/C=C\NC(=O)C(Cc3ccccc3)NC(=O)C21 (centres undefined)
inactive: [1] 96 % of control | [2] 108 % of control | [3] 94 % of control

NC(=O)N/N=C1\CCCCC12CCCCC2
inactive: [4] 95 % of control | dose: 200.0 mg/kg/injection, schedule: Q04DX003 (ip), vehicle: acetone 103 % of control | dose: 400.0 mg/kg/injection, schedule: Q04DX003 (ip), vehicle: acetone 97 % of control

CCOC(=O)C(C)Oc1cc(C)c(Cl)cc1Cl (centres undefined)
inactive: dose: 50.0 mg/kg/injection, schedule: Q01DX001 (ip), vehicle: carboxymethylcellulose (CMC) 96 % of control | dose: 100.0 mg/kg/injection, schedule: Q01DX001 (ip), vehicle: carboxymethylcellulose (CMC) 96 % of control | dose: 200.0 mg/kg/injection, schedule: Q01DX001 (ip), vehicle: carboxymethylcellulose (CMC) 107 % of control | dose: 400.0 mg/kg/injection, schedule: Q01DX001 (ip), vehicle: carboxymethylcellulose (CMC) 107 % of control

Cc1ccc(NC(=O)OCCN(CCOC(=O)Nc2ccc(C)cc2)Cc2ccccc2)cc1
inactive: dose: 100.0 mg/kg/injection, schedule: Q01DX001 (ip), vehicle: saline 94 % of control | dose: 200.0 mg/kg/injection, schedule: Q01DX001 (ip), vehicle: saline 91 % of control | dose: 400.0 mg/kg/injection, schedule: Q01DX001 (ip), vehicle: saline 94 % of control

COc1ccc(OC(=O)Nc2ccc(C)cc2Cl)cc1
inactive: dose: 100.0 mg/kg/injection, schedule: Q01DX009 (ip), vehicle: saline with Tween-80 96 % of control and 104 % of control | [5] 103 % of control and 104 % of control | dose: 200.0 mg/kg/injection, schedule: Q01DX009 (ip), vehicle: saline with Tween-80 97 % of control and 105 % of control | [6] 100 % of control and 107 % of control | dose: 400.0 mg/kg/injection, schedule: Q01DX009 (ip), vehicle: saline with Tween-80 105 % of control and 108 % of control | [7] 96 % of control and 106 % of control

NCCC1CCCCN1 (centres undefined)
inactive: [4] 108 % of control | dose: 150.0 mg/kg/injection, schedule: Q01DX009 (ip), vehicle: saline 117 % of control | dose: 225.0 mg/kg/injection, schedule: Q01DX009 (ip), vehicle: saline 101 % of control | dose: 335.0 mg/kg/injection, schedule: Q01DX009 (ip), vehicle: saline 110 % of control

CC(C)CC(C=O)(CCN(C)C)c1cccc2ccccc12 (centres undefined)
inactive: dose: 12.5 mg/kg/injection, schedule: Q04DX003 (ip), vehicle: saline with Tween-80 107 % of control | dose: 25.0 mg/kg/injection, schedule: Q04DX003 (ip), vehicle: saline with Tween-80 103 % of control | dose: 50.0 mg/kg/injection, schedule: Q04DX003 (ip), vehicle: saline with Tween-80 92 % of control

O=C1C2CCCC1C(c1ccccc1)C=C2c1ccc(O)cc1 (centres undefined)
inactive: [8] 97 % of control | [9] 96 % of control | [10] 94 % of control

COc1ccc(NC(=O)c2cc3ccccc3cc2OC(=O)NC(C)(C)C)cc1
inactive: [11] 103 % of control | [12] 113 % of control | [13] 97 % of control

O=C(O)c1cccc(OCc2ccccc2)c1
inactive: dose: 100.0 mg/kg/injection, schedule: Q01DX009 (ip), vehicle: Klucel (hydroxypropylcellulose) (HPC) 105 % of control | dose: 200.0 mg/kg/injection, schedule: Q01DX009 (ip), vehicle: Klucel (hydroxypropylcellulose) (HPC) 100 % of control

CC(=O)OC1CCC2(C)C(CCC3C4CC=C(C(C)=O)C4(C)OC(=O)CC32)C1 (centres undefined)
inactive: dose: 12.5 mg/kg/injection, schedule: Q01DX009 (ip), vehicle: Klucel (hydroxypropylcellulose) (HPC) 98 % of control | dose: 25.0 mg/kg/injection, schedule: Q01DX009 (ip), vehicle: Klucel (hydroxypropylcellulose) (HPC) 96 % of control | dose: 50.0 mg/kg/injection, schedule: Q01DX009 (ip), vehicle: Klucel (hydroxypropylcellulose) (HPC) 98 % of control

Cc1ccccc1N=Nc1c(O)n(-c2ccccc2C)c(=S)n(-c2ccccc2)c1=O
inactive: dose: 75.0 mg/kg/injection, schedule: Q01DX003 (ip), vehicle: Klucel (hydroxypropylcellulose) (HPC) 88 % of control | dose: 150.0 mg/kg/injection, schedule: Q01DX003 (ip), vehicle: Klucel (hydroxypropylcellulose) (HPC) 104 % of control | dose: 300.0 mg/kg/injection, schedule: Q01DX003 (ip), vehicle: Klucel (hydroxypropylcellulose) (HPC) 86 % of control

CC1=CC(=O)C2C(C)(O1)C1C(=O)C=C(C)OC21C (centres undefined)
inactive: [14] 93 % of control | [1] 101 % of control | dose: 200.0 mg/kg/injection, schedule: Q01DX001 (ip), vehicle: Klucel (hydroxypropylcellulose) (HPC) 101 % of control | [2] 100 % of control | dose: 400.0 mg/kg/injection, schedule: Q01DX001 (ip), vehicle: Klucel (hydroxypropylcellulose) (HPC) 104 % of control | [3] 92 % of control

O=[N+]([O-])c1c(Cl)nc2sccn12
inactive: [11] 106 % of control | [12] 109 % of control | [13] 90 % of control

O=C(O)C(Nc1ccc(Cc2ccc(NC(C(=O)O)c3ccccc3)cc2)cc1)c1ccccc1 (centres undefined)
inactive: dose: 100.0 mg/kg/injection, schedule: Q04DX002 (ip), vehicle: Klucel (hydroxypropylcellulose) (HPC) 100 % of control | dose: 200.0 mg/kg/injection, schedule: Q04DX002 (ip), vehicle: Klucel (hydroxypropylcellulose) (HPC) 103 % of control | dose: 400.0 mg/kg/injection, schedule: Q04DX002 (ip), vehicle: Klucel (hydroxypropylcellulose) (HPC) 92 % of control

COC(=O)CC(CC(=O)OC)c1cccc([N+](=O)[O-])c1
inactive: dose: 25.6 mg/kg/injection, schedule: Q04DX002 (ip), vehicle: saline with Tween-80 101 % of control | dose: 64.0 mg/kg/injection, schedule: Q04DX002 (ip), vehicle: saline with Tween-80 101 % of control | [8] 106 % of control | dose: 160.0 mg/kg/injection, schedule: Q04DX002 (ip), vehicle: saline with Tween-80 101 % of control | [9] 101 % of control | [7] 86 % of control | [10] 101 % of control

Cc1ccc2c(c1)CCCN2C
inactive: dose: 50.0 mg/kg/injection, schedule: Q01DX009 (ip), vehicle: saline 96 % of control | dose: 100.0 mg/kg/injection, schedule: Q01DX009 (ip), vehicle: saline 95 % of control | dose: 100.0 mg/kg/injection, schedule: Q04DX003 (ip), vehicle: saline 100 % of control | dose: 200.0 mg/kg/injection, schedule: Q04DX003 (ip), vehicle: saline 94 % of control

Nc1nc2c(ncn2-c2cccc(NS(=O)(=O)c3cccc(S(=O)(=O)F)c3)c2)c(=O)[nH]1
inactive: dose: 25.0 mg/kg/injection, schedule: Q01DX001 (ip), vehicle: Klucel (hydroxypropylcellulose) (HPC) 96 % of control | dose: 50.0 mg/kg/injection, schedule: Q01DX001 (ip), vehicle: Klucel (hydroxypropylcellulose) (HPC) 98 % of control | [14] 94 % of control

O=C1c2ccccc2C(=O)N1CNc1ccccn1
inactive: [5] 96 % of control | [6] 93 % of control | [7] 100 % of control

O=C(O)c1ccc(CNCc2ccccc2)cc1
inactive: dose: 75.0 mg/kg/injection, schedule: Q01DX001 (ip), vehicle: saline 102 % of control | dose: 150.0 mg/kg/injection, schedule: Q01DX001 (ip), vehicle: saline 96 % of control

CC(=O)Nc1nnc(/C=C/c2ccc([N+](=O)[O-])o2)s1
inactive: [1] 87 % of control | [2] 89 % of control | [3] 100 % of control

COc1cc2c(cc1Cl)nc1c(=O)[nH]c(=O)nc-1n2CCN1CCCC1
inactive: dose: 8.7 mg/kg/injection, schedule: Q01DX Z (ip), vehicle: methylcellulose (MC) 97 % of control | dose: 17.5 mg/kg/injection, schedule: Q01DX Z (ip), vehicle: methylcellulose (MC) 94 % of control | dose: 70.0 mg/kg/injection, schedule: Q01DX Z (ip), vehicle: methylcellulose (MC) 114 % of control
